In paper PMC8879200, “Design, Synthesis, and Biological Evaluation of 4,4’-Difluorobenzhydrol Carbamates as Selective M1 Antagonists” (Pharmaceuticals, 2022):
Like-named read-outs stand apart in the source and are kept apart here.

Experiments:
hM1 = target: T1, hM1 (Homo sapiens, UniProt P11229); assay: Competitive [3H]NMS radioligand binding, CHO-hM1 cell membranes; conditions: inhibition of [3H]NMS binding, CHO-hM1 membranes; read-out: Affinity: Ki ± SD, hM1
T1 construct: host or cells: CHO-K1, stably transfected
T1 sequence (P11229 1-460): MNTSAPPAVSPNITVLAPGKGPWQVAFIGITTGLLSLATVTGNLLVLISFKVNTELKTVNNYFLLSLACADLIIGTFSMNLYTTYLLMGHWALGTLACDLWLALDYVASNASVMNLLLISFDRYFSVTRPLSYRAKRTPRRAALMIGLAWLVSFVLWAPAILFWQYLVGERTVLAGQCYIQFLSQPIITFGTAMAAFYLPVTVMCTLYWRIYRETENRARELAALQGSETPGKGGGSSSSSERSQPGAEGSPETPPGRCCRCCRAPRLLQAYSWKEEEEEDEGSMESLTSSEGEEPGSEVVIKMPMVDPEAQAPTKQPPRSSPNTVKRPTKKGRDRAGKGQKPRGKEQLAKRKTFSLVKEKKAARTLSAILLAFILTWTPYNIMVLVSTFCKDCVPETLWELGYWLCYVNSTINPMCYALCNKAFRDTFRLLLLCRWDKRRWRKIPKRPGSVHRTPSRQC
Description: (§1) We first assessed the carbamates’ affinities for human muscarinic acetylcholine receptors subtypes hM1–5 by means of a competitive radioligand binding assay displacing [N-methyl-^3H]scopolamine methyl chloride ([^3H]NMS) in cell membranes expressing the individual receptors.
(§2) Cell membranes bearing hM1-hM5 receptors were prepared as described previously. Briefly, stably transfected CHO-K1 cells were grown to at least 80% confluency in T175 flasks, washed with ice-cold DPBS, and scraped into a mixture of ice-cold of 2 mL 10 mM Tris-HCl, 1 mM EDTA-buffer, pH 7.4 and 200 µL protease inhibitor. A cell homogenate was prepared by passing the cell suspension through a G29 needle. The cell homogenates corresponding to two T175 flasks were combined and subsequently centrifuged (10 min, 1000 × g, 4 °C). Ultracentrifugation of the supernatant (1 h, 100,000 × g, 4 °C) yielded a membrane pellet, which was suspended in 250 µL 50 mM Tris-HCl buffer, pH 7.4 and stored at −80 °C.
(§3) Maximum binding was measured by using 5 µL DMSO, and nonspecific binding was measured by using 5 µL of 1 µM scopolamine in DMSO. […] The membrane-bound radioactivity was recovered by filtration through Whatman™ GF/B glass fibre filters pre-soaked in aqueous 0.1% PEI using an M-36 tygon tubed cell harvester (Brandel®, Gaithersburg, MD, USA). Membranes were washed 3 times with ice-cold washing buffer (50 mM Tris, pH 7.4) before being dried, transferred to 2 mL scintillation cocktail (UltimaGold™, high flashpoint LSC cocktail, PerkinElmer, Waltham, MA, USA) and counted in a β -counter (Hidex TDCR Liquid Scintillation Counter in CPM mode). IC50 values were calculated by a variable slope logistic regression using at least five distinct concentrations of test compounds, pipetted in triplicates.

hM2 = target: T2, hM2 (Homo sapiens, UniProt P08172); assay: Competitive [3H]NMS radioligand binding, CHO-hM2 cell membranes; conditions: for Ki: read-out: Affinity: Ki ± SD, hM2
T2 construct: host or cells: CHO-K1, stably transfected
T2 sequence (P08172 1-466): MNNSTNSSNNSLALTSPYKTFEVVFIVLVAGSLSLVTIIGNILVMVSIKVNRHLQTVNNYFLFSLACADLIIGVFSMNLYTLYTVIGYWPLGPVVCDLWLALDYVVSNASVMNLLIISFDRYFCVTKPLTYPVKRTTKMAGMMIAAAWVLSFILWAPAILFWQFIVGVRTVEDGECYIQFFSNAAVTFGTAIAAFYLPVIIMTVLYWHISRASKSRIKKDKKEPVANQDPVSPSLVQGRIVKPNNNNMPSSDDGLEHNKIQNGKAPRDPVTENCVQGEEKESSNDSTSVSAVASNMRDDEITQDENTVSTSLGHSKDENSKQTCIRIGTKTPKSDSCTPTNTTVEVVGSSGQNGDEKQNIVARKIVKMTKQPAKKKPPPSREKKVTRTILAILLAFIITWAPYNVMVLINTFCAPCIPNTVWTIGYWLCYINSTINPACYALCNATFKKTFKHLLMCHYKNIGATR
Description: as §1, §2, §3

hM3 = target: T3, hM3 (Homo sapiens, UniProt P20309); assay: Competitive [3H]NMS radioligand binding, CHO-hM3 cell membranes; conditions: for Ki: read-out: Affinity: Ki ± SD, hM3
T3 construct: host or cells: CHO-K1, stably transfected
Description: as §1, §2, §3

hM4 = target: T4, hM4 (Homo sapiens, UniProt P08173); assay: Competitive [3H]NMS radioligand binding, CHO-hM4 cell membranes; conditions: for Ki: inhibition of [3H]NMS binding, CHO-hM4 membranes, read-out: Affinity: Ki ± SD, hM4
T4 construct: host or cells: CHO-K1, stably transfected
T4 sequence (P08173 1-479): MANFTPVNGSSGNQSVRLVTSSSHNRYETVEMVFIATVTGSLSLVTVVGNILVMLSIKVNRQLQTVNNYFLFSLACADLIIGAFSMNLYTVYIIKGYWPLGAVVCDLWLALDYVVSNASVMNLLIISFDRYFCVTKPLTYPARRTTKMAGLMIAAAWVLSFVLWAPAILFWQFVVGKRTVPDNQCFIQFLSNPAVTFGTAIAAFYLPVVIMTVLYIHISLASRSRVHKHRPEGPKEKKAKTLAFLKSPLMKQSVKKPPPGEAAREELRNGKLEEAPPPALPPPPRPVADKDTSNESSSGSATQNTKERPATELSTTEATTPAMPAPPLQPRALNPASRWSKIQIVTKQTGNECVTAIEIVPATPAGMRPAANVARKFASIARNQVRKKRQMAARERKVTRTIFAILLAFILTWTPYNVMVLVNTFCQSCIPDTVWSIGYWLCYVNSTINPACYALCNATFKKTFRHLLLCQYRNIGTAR
Description: as §1, §2, §3

hM5 = target: T5, hM5 (Homo sapiens, UniProt P08912); assay: Competitive [3H]NMS radioligand binding, CHO-hM5 cell membranes; conditions: for Ki: inhibition of [3H]NMS binding, CHO-hM5 membranes, read-out: Affinity: Ki ± SD, hM5
T5 construct: host or cells: CHO-K1, stably transfected
T5 sequence (P08912 1-532): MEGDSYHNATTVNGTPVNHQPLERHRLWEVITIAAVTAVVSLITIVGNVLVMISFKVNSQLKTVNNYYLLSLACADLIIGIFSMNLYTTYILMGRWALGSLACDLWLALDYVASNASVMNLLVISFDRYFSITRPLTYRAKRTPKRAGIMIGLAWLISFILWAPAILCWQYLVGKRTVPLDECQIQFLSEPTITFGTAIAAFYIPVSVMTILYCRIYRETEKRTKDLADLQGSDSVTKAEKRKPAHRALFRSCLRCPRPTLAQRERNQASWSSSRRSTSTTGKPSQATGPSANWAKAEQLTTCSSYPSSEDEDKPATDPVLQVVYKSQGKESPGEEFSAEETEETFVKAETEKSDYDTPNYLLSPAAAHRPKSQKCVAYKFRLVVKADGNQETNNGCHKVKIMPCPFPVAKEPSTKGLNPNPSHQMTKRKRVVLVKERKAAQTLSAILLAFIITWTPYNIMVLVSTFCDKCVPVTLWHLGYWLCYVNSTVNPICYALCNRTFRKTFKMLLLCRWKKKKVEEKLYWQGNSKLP
Description: as §1, §2, §3

physchem = conditions: pH 7.4
Description: (§4) Briefly, a mixture of toluene (≥98%, Sigma-Aldrich, St. Louis, MO, USA) and triphenylene (≥99.9%, Carl Roth, Karlsruhe, Germany) was used as internal standard. Each sample was dissolved in the internal standard mixture. Using gradient elution, the injection volume was set to 7 µL, the flow rate was 1.5 mL/min, and the mobile phase consisted of a mixture of methanol and 0.01 M sodium phosphate buffer pH 7.4. The HPLC-logD values were derived from the measured retention times following the previously published equation [27, 30].

[1] = High throughput HPLC-logD (lipophilicity); conditions: pH 7.4
Description: as §4

T3 sequence (P20309 whole entry): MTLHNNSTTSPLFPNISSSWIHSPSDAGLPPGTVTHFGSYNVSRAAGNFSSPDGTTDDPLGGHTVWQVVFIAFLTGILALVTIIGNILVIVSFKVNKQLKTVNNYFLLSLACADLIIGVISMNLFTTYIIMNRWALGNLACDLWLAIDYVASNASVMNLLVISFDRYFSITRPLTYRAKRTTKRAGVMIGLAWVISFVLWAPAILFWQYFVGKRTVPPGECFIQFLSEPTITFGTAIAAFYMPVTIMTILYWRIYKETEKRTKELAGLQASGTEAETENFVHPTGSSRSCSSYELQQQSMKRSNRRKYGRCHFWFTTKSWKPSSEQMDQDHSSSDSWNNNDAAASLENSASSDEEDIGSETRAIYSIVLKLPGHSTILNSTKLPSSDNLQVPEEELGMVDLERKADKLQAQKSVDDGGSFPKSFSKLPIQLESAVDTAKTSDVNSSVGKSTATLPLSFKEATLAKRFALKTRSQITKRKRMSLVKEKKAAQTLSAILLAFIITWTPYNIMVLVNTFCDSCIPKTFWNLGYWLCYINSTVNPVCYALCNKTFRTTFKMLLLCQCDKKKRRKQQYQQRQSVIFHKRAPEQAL

x-Fold selectivity for hM1 vs. hM2 (hM2; ratio of Ki values hM2/hM1) [fold] | Ki (hM2) [µM] | x-Fold selectivity for hM1 vs. hM3 (hM3; ratio of Ki values hM3/hM1) [fold] | Ki (hM3) [µM] | x-Fold selectivity for hM1 vs. hM4 (hM4; ratio of Ki values hM4/hM1) [fold] | x-Fold selectivity for hM1 vs. hM5 (hM5; ratio of Ki values hM5/hM1) [fold] | melting point [°C] | chromatographic logD [1] | SMILES | Ki (hM1) [µM] | Ki (hM2; inhibition of [3H]NMS binding, CHO-hM2 membranes, >1000 values from two independent experiments) [µM] | Ki (hM3; inhibition of [3H]NMS binding, CHO-hM3 membranes, >1000 values from two independent experiments) [µM] | Ki (hM4) [µM] | Ki (hM5) [µM] | chromatographic logD (physchem)
– | – | – | – | – | – | – | – | CN1C2CCCC1CC(NC(=O)OC(c1ccc(F)cc1)c1ccc(F)cc1)C2 [Compound 8, Bis(4-fluorophenyl)methyl ((1R,3s,5S)-9-methyl-9-azabicyclo[3.3.1]nonan-3-yl)carbamate] | 0.475 ± 0.0885 | 0.624 ± 0.104 | > 1 | 0.563 ± 0.0734 | 0.521 ± 0.173 | 3.21 ± 0.03
10.6 | 0.722 ± 0.101 | 2.7 | 0.181 ± 0.0681 | 2.1 | 1.0 | 84 to 86 | 2.8 ± 0.1 | CN1CCC(NC(=O)OC(c2ccc(F)cc2)c2ccc(F)cc2)C1 (centres unmarked) [Compound 9, Bis(4-fluorophenyl)methyl (1-methylpyrrolidin-3-yl)carbamate] | 0.0678 ± 0.0054 | – | – | 0.144 ± 0.0373 | 0.0645 ± 0.0228 | –
